Test results published in article PMC6220849, “Mechanistic and structural studies of KDM‐catalysed demethylation of histone 1 isotype 4 at lysine 26” (Febs Letters, 2018).
Square brackets hold non-standard residues; d marks the D form. Ends that are not written are not given here. Lys(Me3) = C[N+](C)(C)CCCC[C@H](N)C(=O)O

Key:
Assay type in all cases: biochemical, human
KDM7B (PHF8; KDM7B1–447) = experiment: MALDI-TOF MS demethylation activity assay, KDM7B (PHF8); set-up: key to demethylation activity on methylated H1.4 peptide: 🟢: Indicates that clear demethylation activity was observed; 🟡: Indicates that low level demethylation activity was observed (<10% conversion after 1 h); 🔴: Indicates no activity under the stated conditions (1 μM KDM, 10 μM peptide); 🟡*: *Indicates demethylation activity was only observed with 5 μM KDM; details: peptide as substrate; MALDI-TOF MS; 1 μM KDM (* = only with 5 μM KDM), 10 μM peptide, 50 mM HEPES pH 7.5, Fe(II) 10 μM, ascorbate 100 μM, 2OG 200 μM, 1 h at 37 °C
Protocol: (§1) Recombinant proteins (1 μM) were incubated with peptides (10 μM, sequences are given in Table S1) in 50 mM HEPES, pH 7.5 with addition of Fe(II) ammonium sulfate (10 μM), sodium ascorbate (100 μM) and 2‐oxoglutaric acid (200 μM). Reactions with KDM3A and KDM7A also contained 1 mM tris(2‐carboxyethyl)phosphine hydrochloride. No enzyme reactions were included as negative controls. Reactions were incubated for 1 h at 37 °C before being quenched with 1 : 1 (v/v) methanol. Analysis was carried out by MALDI‐TOF MS (Bruker, Billerica, MA, USA), with demethylation observed as mass shifts of 14 Da.
(§2) Given the activity observed with KDM4E and KDM7A, we decided to investigate the intra‐subfamily conservation of this demethylation activity. The demethylation activity of the other subfamily members (KDM4A‐D and KDM7B) was therefore screened. […] Note that as with H3K9, demethylation of the monomethylated H1.4K26 peptide was only observed with KDM4E, under the stated conditions 24.
N ^ε‐Trimethylated H3K4 binds to the plant homeobox domain of KDM7B, targeting the N ^ε‐dimethyllysine at H3K9 to the catalytic domain, and thus promoting demethylation 29, 44. To test whether similar targeting may occur with H1.4, promoting activity at H1.4K26, an H1.4 peptide was synthesised containing di‐N ^ε‐methyllysine at K26 and tri‐N ^ε‐methyllysine at K21 (i.e. at the equivalent position in the sequence to K4 in the H3 peptide, Fig. 1B, Table S1). Monomethylation at H1.4K21 has previously been observed by proteomic mass spectrometry 45. With the aim of enhancing activity, the enzyme concentration was increased from 1 μM to 5 μM, and time course analyses were conducted with both KDM7A and KDM7B, both with the new peptide (H1.4(18–32)K21me3K26me2) and the H1.4 peptides methylated only at K26 (Fig. 2B). […] Thus, it appears unlikely that N ^ε‐trimethylation at H1.4K21 promotes demethylation at H1.4K26 by KDM7B.

KDM5C (KDM5C1–765) = experiment: MALDI-TOF MS demethylation activity assay, KDM5C; set-up: key: 🟢: Indicates that clear demethylation activity was observed; 🟡: Indicates that low level demethylation activity was observed (<10% conversion after 1 h); 🔴: Indicates no activity under the stated conditions (1 μM KDM, 10 μM peptide); 🟡*: *Indicates demethylation activity was only observed with 5 μM KDM; details: peptide as substrate, 1 μM KDM, 10 μM peptide, 50 mM HEPES pH 7.5, Fe(II) 10 μM, ascorbate 100 μM, 2OG 200 μM, 1 h at 37 °C
Protocol: as §1
(§3) The propensity of human JmjC KDMs to catalyse demethylation at H1.4K26 was investigated using recombinant forms of the catalytic domains of representatives of each human JmjC KDM subfamily (KDM2‐7) and fragment peptides (Table S1) 37. Three peptides with identical sequences, corresponding to residues 18–32 of histone H1.4 (H2N‐[…]‐CONH2), but containing either a N ^ε‐tri‐, di‐ or monomethyllysine at K26 were synthesised (Fig. 1B and Table S1). Activity assays monitoring JmjC KDM‐catalysed demethylation of the peptides were then carried out; samples were prepared containing each peptide, 2‐oxoglutarate (2OG), ferrous iron, ascorbate and individual representatives from each JmjC KDM subfamily (KDM2A 38, KDM3A 21, KDM4E 22, KDM5C 39, 40, KDM6B 41, KDM7A 42).

KDM6B (KDM6B1141–1590) = experiment: MALDI-TOF MS demethylation activity assay, KDM6B; set-up: key: 🟢: Indicates that clear demethylation activity was observed; 🟡: Indicates that low level demethylation activity was observed (<10% conversion after 1 h); 🔴: Indicates no activity under the stated conditions (1 μM KDM, 10 μM peptide); 🟡*: *Indicates demethylation activity was only observed with 5 μM KDM; details: peptide as substrate, 1 μM KDM, 10 μM peptide, 50 mM HEPES pH 7.5, Fe(II) 10 μM, ascorbate 100 μM, 2OG 200 μM, 1 h at 37 °C
Protocol: as §1, §3

KDM3A (KDM3A515–1317) = experiment: MALDI-TOF MS demethylation activity assay, KDM3A; set-up: key: 🟢: Indicates that clear demethylation activity was observed; 🟡: Indicates that low level demethylation activity was observed (<10% conversion after 1 h); 🔴: Indicates no activity under the stated conditions (1 μM KDM, 10 μM peptide); 🟡*: *Indicates demethylation activity was only observed with 5 μM KDM; details: peptide as substrate, 1 μM KDM, 10 μM peptide, 50 mM HEPES pH 7.5, Fe(II) 10 μM, ascorbate 100 μM, 2OG 200 μM, 1 mM TCEP, 1 h at 37 °C
Protocol: as §1, §3

KDM4D (KDM4D1–359) = experiment: MALDI-TOF MS demethylation activity assay, KDM4D; set-up: key: 🟢: Indicates that clear demethylation activity was observed; 🟡: Indicates that low level demethylation activity was observed (<10% conversion after 1 h); 🔴: Indicates no activity under the stated conditions (1 μM KDM, 10 μM peptide); 🟡*: *Indicates demethylation activity was only observed with 5 μM KDM; details: peptide as substrate, 1 μM KDM, 10 μM peptide, 50 mM HEPES pH 7.5, Fe(II) 10 μM, ascorbate 100 μM, 2OG 200 μM, 1 h at 37 °C
Protocol: as §1, §2

KDM4A = experiment: 1H NMR activity assay (time course); details: KDM4A 10 μM, peptide 400 μM, 2OG 400 μM, Fe(II) 100 μM, ascorbate 1 mM, 50 mM ammonium formate pH 7.5, 500 mM NaCl, 700 MHz
Protocol: The NMR analyses employed a Bruker Avance III 700 MHz spectrometer with an inverse TCI cryoprobe optimised for ^1H observation and were carried out as previously described 6. Samples (KDM4A (10 μM), 2OG (400 μM), H1.4(18–32)K26me3 peptide (400 μM), Fe(II) ammonium sulfate (100 μM) and ascorbate (1 mM) in 50 mM ammonium formate, pH 7.5, 500 mM NaCl in 10% v/v D2O) were prepared in a microcentrifuge tube (total volume = 75 μL), before being transferred to an NMR tube. The samples were then analysed over time using automated routines; each time‐point corresponded to one experiment accumulating 16 transients (89 s total acquisition time per experiment). The solvent resonance was depleted by excitation sculpting using a 180° sinc pulse (duration = 2 ms) 30.
Studies then focused on determining the proficiency of H1.4K26 demethylation by the KDM4 enzymes.

KDM4A (KDM4A1–359) = experiment: MALDI-TOF MS demethylation activity assay, KDM4A; set-up: key: 🟢: Indicates that clear demethylation activity was observed; 🟡: Indicates that low level demethylation activity was observed (<10% conversion after 1 h); 🔴: Indicates no activity under the stated conditions (1 μM KDM, 10 μM peptide); 🟡*: *Indicates demethylation activity was only observed with 5 μM KDM; details: peptide as substrate, 1 μM KDM, 10 μM peptide, 50 mM HEPES pH 7.5, Fe(II) 10 μM, ascorbate 100 μM, 2OG 200 μM, 1 h at 37 °C
Protocol: as §1, §2

Substance: TPVKKKAR[Lys(Me3)]SAGAAK [H1.4(18–32)K26me3, peptide of residues 18–32 of histone H1.4 with N ε-trimethyllysine at K26]
- demethylation activity on methylated H1.4 peptide (KDM7B (PHF8; KDM7B1–447)): 🔴
- demethylation activity on methylated H1.4 peptide (KDM5C (KDM5C1–765)): 🔴
- demethylation activity on methylated H1.4 peptide (KDM6B (KDM6B1141–1590)): 🔴
- demethylation activity on methylated H1.4 peptide (KDM3A (KDM3A515–1317)): 🔴
- demethylation activity on methylated H1.4 peptide (KDM4D (KDM4D1–359)): 🟢
- demethylation of the Kme3 residue by 1H NMR (result in words) (KDM4A): time‐dependent demethylation
- demethylation activity on methylated H1.4 peptide (KDM4A (KDM4A1–359)): 🟢
